Assay results reported in patent publication US10035760B2, “Inhibitors of human immunodeficiency virus replication” (priority 2013, dated 2018).
pEC50: −log10 of the molar value. Where two headings read alike, the source gives them in different places.

Tested on: recombinant NL4-3 virus (Renilla luciferase) in MT-2 cells
Test: HIV cell culture assay (antiviral activity, luciferase readout in infected MT-2 cells)
Format: cell-based
Settings: Renilla
Method: HIV cell culture assay—MT-2 cells, 293T cells and the proviral DNA clone of NL4-3 virus were obtained from the NIH AIDS Research and Reference Reagent Program. MT-2 cells were propagated in RPMI 1640 media supplemented with 10% heat inactivated fetal bovine serum (FBS), 100 ug/ml penicillin G and up to 100 units/ml streptomycin. The 293T cells were propagated in DMEM media supplemented with 10% heat inactivated FBS, 100 ug/ml penicillin G and 100 ug/ml streptomycin. A recombinant NL4-3 proviral clone, in which a section of the nef gene was replaced with the Renilla luciferase gene, was used to make the reference virus used in these studies. The recombinant virus was prepared through transfection of the recombinant NL4-3 proviral clone into 293T cells using Transit-293 Transfection Reagent from Mirus Bio LLC (Madison, Wis.). Supernatent was harvested after 2-3 days after transfection, and the amount of virus present was titered in MT-2 cells using luciferase enzyme activity as a marker. Luciferase activity was quantitated using the EnduRen Live Cell Substrate from Promega (Madison, Wis.). Antiviral activities of compounds toward the recombinant virus were quantified by measuring luciferase activity in MT-2 cells infected for 4-5 days with the recombinant virus in the presence of serial dilutions of the compound.
The 50% effective concentration (EC50) was calculated by using the exponential form of the median effect equation where (Fa)=1/[1+(ED50/drug conc.)^m](Johnson V A, Byington R T. Infectivity Assay. In Techniques in HIV Research. ed. Aldovini A, Walker B D. 71-76. New York: Stockton Press. 1990).

[1] = NL43, read-out: Activity, antiviral activity class, recombinant NL4-3 Renilla luciferase virus in MT-2 cells
[2] = NL43, recombinant NL4-3 Renilla luciferase virus in MT-2 cells

Structure (SMILES)	pEC50 [1]	pEC50 [2]
CN(C(=O)[C@H](Cc1ccccc1)NC(=O)NS(=O)(=O)c1ccccc1)c1ccc2c(c1)OCO2 [Example 1, (S)—N-(benzo[d][1,3]dioxol-5-yl)-N-methyl-3-phenyl-2-(3-(phenylsulfonyl)ureido)propanamide]	6.00 to 7.00	6.59
Cc1ccccc1S(=O)(=O)NC(=O)N[C@@H](Cc1ccccc1)C(=O)N(C)c1ccc2c(c1)OCO2 [Example 2, (S)—N-(benzo[d][1,3]dioxol-5-yl)-N-methyl-3-phenyl-2-(3-(o-tolylsulfonyl)ureido)propanamide]	> 7.00	7.15
CN(C(=O)[C@H](Cc1ccccc1)NC(=O)NS(=O)(=O)c1cccc(Cl)c1)c1ccc2c(c1)OCO2 [Example 3, (S)—N-(benzo[d][1,3]dioxol-5-yl)-2-(3-((3-chlorophenyl)sulfonyl)ureido)-N-methyl-3-phenylpropanamide]	6.00 to 7.00	–
CN(C(=O)[C@H](Cc1ccccc1)NC(=O)NS(=O)(=O)C1(C)CC1)c1ccc2c(c1)OCO2 [Example 4, (S)—N-(benzo[d][1,3]dioxol-5-yl)-N-methyl-2-(3-((1-methylcyclopropyl)sulfonyl)ureido)-3-phenylpropanamide]	5.00 to 6.00	5.95
Cc1ccc(S(=O)(=O)NC(=O)N[C@@H](Cc2ccccc2)C(=O)N(C)c2ccc3c(c2)OCO3)cc1 [Example 5, (S)—N-(benzo[d][1,3]dioxol-5-yl)-N-methyl-3-phenyl-2-(3-tosylureido)propanamide]	6.00 to 7.00	–
CN(C(=O)[C@H](Cc1ccccc1)NC(=O)NS(=O)(=O)c1ccc(Cl)cc1)c1ccc2c(c1)OCO2 [Example 6, (S)—N-(benzo[d][1,3]dioxol-5-yl)-2-(3-((4-chlorophenyl)sulfonyl)ureido)-N-methyl-3-phenylpropanamide]	6.00 to 7.00	–
CN(C(=O)[C@H](Cc1ccccc1)NC(=O)NS(=O)(=O)c1ccccc1Cl)c1ccc2c(c1)OCO2 [Example 7, (S)—N-(benzo[d][1,3]dioxol-5-yl)-2-(3-((2-chlorophenyl)sulfonyl)ureido)-N-methyl-3-phenylpropanamide]	> 7.00	–
COc1ccc(S(=O)(=O)NC(=O)N[C@@H](Cc2ccccc2)C(=O)N(C)c2ccc3c(c2)OCO3)cc1 [Example 8, (S)—N-(benzo[d][1,3]dioxol-5-yl)-2-(3-((4-methoxyphenyl)sulfonyl)ureido)-N-methyl-3-phenylpropanamide]	6.00 to 7.00	6.74
CN(C(=O)[C@H](Cc1ccccc1)NC(=O)NS(=O)(=O)c1ccccc1F)c1ccc2c(c1)OCO2 [Example 9, (S)—N-(benzo[d][1,3]dioxol-5-yl)-2-(3-((2-fluorophenyl)sulfonyl)ureido)-N-methyl-3-phenylpropanamide]	> 7.00	–
CN(C(=O)[C@H](Cc1ccccc1)NC(=O)NS(=O)(=O)Cc1ccccc1)c1ccc2c(c1)OCO2 [Example 10, (S)—N-(benzo[d][1,3]dioxol-5-yl)-2-(3-(benzylsulfonyl)ureido)-N-methyl-3-phenylpropanamide]	6.00 to 7.00	–
CN(C(=O)[C@H](Cc1ccccc1)NC(=O)NS(=O)(=O)c1cc(Cl)cc(Cl)c1)c1ccc2c(c1)OCO2 [Example 11, (S)—N-(benzo[d][1,3]dioxol-5-yl)-2-(3-((3,5-dichlorophenyl)sulfonyl)ureido)-N-methyl-3-phenylpropanamide]	6.00 to 7.00	–
CN(C(=O)[C@H](Cc1ccccc1)NC(=O)NS(=O)(=O)c1cc(Br)ccc1Br)c1ccc2c(c1)OCO2 [Example 12, (S)—N-(benzo[d][1,3]dioxol-5-yl)-2-(3-((2,5-dibromophenyl)sulfonyl)ureido)-N-methyl-3-phenylpropanamide]	> 7.00	–
Cc1ccc(C)c(S(=O)(=O)NC(=O)N[C@@H](Cc2ccccc2)C(=O)N(C)c2ccc3c(c2)OCO3)c1 [Example 13, (S)—N-(benzo[d][1,3]dioxol-5-yl)-2-(3-((2,5-dimethylphenyl)sulfonyl)ureido)-N-methyl-3-phenylpropanamide]	> 7.00	7.30
CN(C(=O)[C@H](Cc1ccccc1)NC(=O)NS(=O)(=O)c1ccccc1OC(F)(F)F)c1ccc2c(c1)OCO2 [Example 14, (S)—N-(benzo[d][1,3]dioxol-5-yl)-N-methyl-3-phenyl-2-(3-((2-(trifluoromethoxy)phenyl)sulfonyl)ureido)propanamide]	> 7.00	–
CN(C(=O)[C@H](Cc1ccccc1)NC(=O)NS(=O)(=O)c1cccc(Cl)c1Cl)c1ccc2c(c1)OCO2 [Example 15, (S)—N-(benzo[d][1,3]dioxol-5-yl)-2-(3-((2,3-dichlorophenyl)sulfonyl)ureido)-N-methyl-3-phenylpropanamide]	> 7.00	–
Cc1ccc(F)cc1S(=O)(=O)NC(=O)N[C@@H](Cc1ccccc1)C(=O)N(C)c1ccc2c(c1)OCO2 [Example 16, (S)—N-(benzo[d][1,3]dioxol-5-yl)-2-(3-((5-fluoro-2-methylphenyl)sulfonyl)ureido)-N-methyl-3-phenylpropanamide]	> 7.00	–
CN(C(=O)[C@H](Cc1ccccc1)NC(=O)NS(=O)(=O)c1ccccc1C(F)(F)F)c1ccc2c(c1)OCO2 [Example 17, (S)—N-(benzo[d][1,3]dioxol-5-yl)-N-methyl-3-phenyl-2-(3-((2-(trifluoromethyl)phenyl)sulfonyl)ureido)propanamide]	6.00 to 7.00	–
CN(C(=O)[C@H](Cc1ccccc1)NC(=O)NS(=O)(=O)c1ccc(F)cc1F)c1ccc2c(c1)OCO2 [Example 18, (S)—N-(benzo[d][1,3]dioxol-5-yl)-2-(3-((2,4-difluorophenyl)sulfonyl)ureido)-N-methyl-3-phenylpropanamide]	6.00 to 7.00	6.70
CN(C(=O)[C@H](Cc1ccccc1)NC(=O)NS(=O)(=O)c1cccc(Br)c1)c1ccc2c(c1)OCO2 [Example 19, (S)—N-(benzo[d][1,3]dioxol-5-yl)-2-(3-((3-bromophenyl)sulfonyl)ureido)-N-methyl-3-phenylpropanamide]	6.00 to 7.00	–
COc1cccc(S(=O)(=O)NC(=O)N[C@@H](Cc2ccccc2)C(=O)N(C)c2ccc3c(c2)OCO3)c1 [Example 20, (S)—N-(benzo[d][1,3]dioxol-5-yl)-2-(3-((3-methoxyphenyl)sulfonyl)ureido)-N-methyl-3-phenylpropanamide]	> 7.00	7.05
CN(C(=O)[C@H](Cc1ccccc1)NC(=O)NS(=O)(=O)c1ccc([N+](=O)[O-])cc1)c1ccc2c(c1)OCO2 [Example 21, (S)—N-(benzo[d][1,3]dioxol-5-yl)-N-methyl-2-(3-((4-nitrophenyl)sulfonyl)ureido)-3-phenylpropanamide]	5.00 to 6.00	–
CN(C(=O)[C@H](Cc1ccccc1)NC(=O)NS(=O)(=O)c1ccc(F)cc1)c1ccc2c(c1)OCO2 [Example 22, (S)—N-(benzo[d][1,3]dioxol-5-yl)-2-(3-((4-fluorophenyl)sulfonyl)ureido)-N-methyl-3-phenylpropanamide]	6.00 to 7.00	–
COC(=O)c1ccccc1S(=O)(=O)NC(=O)N[C@@H](Cc1ccccc1)C(=O)N(C)c1ccc2c(c1)OCO2 [Example 23, (S)-methyl 2-(N-((1-(benzo[d][1,3]dioxol-5-yl(methyl)amino)-1-oxo-3-phenylpropan-2-yl)carbamoyl)sulfamoyl)benzoate]	5.00 to 6.00	–
CN(C(=O)[C@H](Cc1ccccc1)NC(=O)NS(=O)(=O)CCc1ccccc1)c1ccc2c(c1)OCO2 [Example 24, (S)—N-(benzo[d][1,3]dioxol-5-yl)-N-methyl-2-(3-(phenethylsulfonyl)ureido)-3-phenylpropanamide]	6.00 to 7.00	–
CN(C(=O)[C@H](Cc1ccccc1)NC(=O)NS(=O)(=O)CCCc1ccccc1)c1ccc2c(c1)OCO2 [Example 25, (S)—N-(benzo[d][1,3]dioxol-5-yl)-N-methyl-3-phenyl-2-(3-((3-phenylpropyl)sulfonyl)ureido)propanamide]	6.00 to 7.00	6.03
CN(C(=O)[C@H](Cc1ccccc1)NC(=O)NS(=O)(=O)c1ccc(F)c(F)c1)c1ccc2c(c1)OCO2 [Example 26, (S)—N-(benzo[d][1,3]dioxol-5-yl)-2-(3-((3,4-difluorophenyl)sulfonyl)ureido)-N-methyl-3-phenylpropanamide]	6.00 to 7.00	–
Cc1ccc(S(=O)(=O)NC(=O)N[C@@H](Cc2ccccc2)C(=O)N(C)c2ccc3c(c2)OCO3)s1 [Example 27, (S)—N-(benzo[d][1,3]dioxol-5-yl)-N-methyl-2-(3-((5-methylthiophen-2-yl)sulfonyl)ureido)-3-phenylpropanamide]	6.00 to 7.00	–
Cc1c(Cl)cccc1S(=O)(=O)NC(=O)N[C@@H](Cc1ccccc1)C(=O)N(C)c1ccc2c(c1)OCO2 [Example 28, (S)—N-(benzo[d][1,3]dioxol-5-yl)-2-(3-((3-chloro-2-methylphenyl)sulfonyl)ureido)-N-methyl-3-phenylpropanamide]	> 7.00	–
CN(C(=O)[C@H](Cc1ccccc1)NC(=O)NS(=O)(=O)c1ccccc1Br)c1ccc2c(c1)OCO2 [Example 29, (S)—N-(benzo[d][1,3]dioxol-5-yl)-2-(3-((2-bromophenyl)sulfonyl)ureido)-N-methyl-3-phenylpropanamide]	> 7.00	–
